From patent publication US10406146B2, “Heterocyclic compound” (TAKEDA PHARMACEUTICAL COMPANY LIMITED, priority 2015, dated 2019) come the findings set out here.

What all share (assay type): biochemical
In one test the target is T1, HDAC9 enzyme (Homo sapiens, UniProt Q9UKV0).
T1 construct: transducing full length HDAC9 gene into Sf-9 insect cells; made in house; host or cells: Sf-9 insect cells
The experiment in a line: HDAC9 enzyme inhibitory assay (HDAC-Glo class IIa). Particulars: wells without enzyme = 100% inhibition, read-out: HDAC9 inhibitory rate (%) (1 μM). As for the experimental part:
HDAC9 Enzyme Inhibitory Assay
Enzyme was prepared by transducing full length HDAC9 gene into Sf-9 insect cells and purifying by Ni-NTA affinity column, and HDAC9 enzyme inhibitory activity was evaluated. Enzymes were used after preserved at −70° C. HDAC9 enzyme inhibitory activity of the test compound was measured using HDAC-Glo class IIa (Promega) according to the following experimental method. The test compound diluted with assay buffer (24 mM Tris-HCl (pH 7.5), 1 mM MgCl2, 0.35 mM KCl, 135 mM NaCl, 0.6 mM Glutathione, 0.01% Tween-20) was added to a 384-well plate by each 2 μL. Then, HDAC9 enzyme solution diluted with assay buffer was added thereto by each 2 μL, and the plate was incubated at room temperature for 60 min. After incubated, HDAC substrate-Developer solution prepared according to Promega protocol was added to the 384-well plate by each 4 μL, and the enzyme reaction was started. After reacting at room temperature for 20 min, luminescence level was measured using plate reader Envision (PerkinElmer). The inhibitory activity of each compound was calculated as a relative activity value when luminescence level in wells without enzyme is considered as 100% inhibition.

For a further test, the target named is T2, HDAC6 enzyme (Homo sapiens, UniProt Q9UBN7).
T2 construct: transducing full length HDAC1 and HDAC6 genes into Sf-9 insect cells; GST; purchased SignalChem; host or cells: Sf-9 insect cells
T2 sequence (Q9UBN7 1-1215): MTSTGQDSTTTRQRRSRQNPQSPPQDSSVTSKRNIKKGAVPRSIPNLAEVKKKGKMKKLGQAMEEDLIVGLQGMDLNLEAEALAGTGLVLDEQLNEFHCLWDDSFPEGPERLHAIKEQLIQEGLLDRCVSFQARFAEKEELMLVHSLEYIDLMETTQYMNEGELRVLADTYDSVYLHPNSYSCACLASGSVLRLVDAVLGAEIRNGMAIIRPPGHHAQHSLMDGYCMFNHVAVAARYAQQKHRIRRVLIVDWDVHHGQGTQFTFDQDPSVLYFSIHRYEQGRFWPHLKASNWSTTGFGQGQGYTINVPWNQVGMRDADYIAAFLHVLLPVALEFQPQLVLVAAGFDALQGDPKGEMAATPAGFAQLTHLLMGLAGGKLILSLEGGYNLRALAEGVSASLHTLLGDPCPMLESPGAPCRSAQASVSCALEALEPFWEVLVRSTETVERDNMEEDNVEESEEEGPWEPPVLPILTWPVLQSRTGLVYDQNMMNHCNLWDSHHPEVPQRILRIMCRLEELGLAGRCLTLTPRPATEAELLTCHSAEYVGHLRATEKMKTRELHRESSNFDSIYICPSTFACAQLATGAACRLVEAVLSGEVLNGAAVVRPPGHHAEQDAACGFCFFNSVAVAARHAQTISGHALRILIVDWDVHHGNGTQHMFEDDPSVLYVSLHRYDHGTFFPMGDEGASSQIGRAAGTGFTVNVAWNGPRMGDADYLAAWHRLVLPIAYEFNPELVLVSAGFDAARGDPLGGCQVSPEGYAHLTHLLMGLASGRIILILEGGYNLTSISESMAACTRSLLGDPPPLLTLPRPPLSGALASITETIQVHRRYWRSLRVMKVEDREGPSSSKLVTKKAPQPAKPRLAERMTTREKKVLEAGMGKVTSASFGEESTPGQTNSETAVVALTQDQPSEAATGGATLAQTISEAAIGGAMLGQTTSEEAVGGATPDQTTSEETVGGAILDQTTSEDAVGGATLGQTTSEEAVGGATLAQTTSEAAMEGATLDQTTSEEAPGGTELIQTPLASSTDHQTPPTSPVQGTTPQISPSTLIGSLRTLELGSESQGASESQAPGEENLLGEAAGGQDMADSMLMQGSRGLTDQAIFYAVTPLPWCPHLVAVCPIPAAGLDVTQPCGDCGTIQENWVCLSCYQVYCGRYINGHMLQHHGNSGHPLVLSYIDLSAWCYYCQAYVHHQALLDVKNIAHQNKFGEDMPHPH
As to the kind of experiment: HDAC6 enzyme inhibitory assay (HDAC-Glo I/II Assay kit). Conditions: wells without enzyme = 100% inhibition, read-out: HDAC6 inhibitory rate (%) (1 μM). As for the experimental part:
(§1) HDAC1/6 Enzyme Inhibitory Assay
(§2) HDAC1 enzyme and HDAC6 enzyme each prepared by transducing full length HDAC1 and HDAC6 genes into Sf-9 insect cells and purifying by GST affinity column were purchased from SignalChem. Using these enzymes, HDAC1 and/or HDAC6 enzyme inhibitory activities of the compound of the present invention were evaluated. Enzymes were used after preserved at −70° C. HDAC1 or HDAC6 enzyme inhibitory activity of the compound of the present invention was measured using HDAC-Glo™ I/II Assay kit (Promega) according to the following experimental method. The test compound diluted with assay buffer (24 mM Tris-HCl (pH 7.5), 1 mM MgCl2, 0.35 mM KCl, 135 mM NaCl, 0.6 mM Glutathione, 0.01% Tween-20) was added to a 384-well plate by each 2 μL. Then, HDAC1 or HDAC6 enzyme solution diluted with assay buffer was added thereto by each 4 μL, and the plate was incubated at room temperature for 60 min. After incubated, HDAC substrate-Developer solution prepared according to Promega protocol attached to the assay kit was added to the 384-well plate by each 2 μL, and the enzyme reaction was started. After reacting at room temperature for 20 min, luminescence level was measured using plate reader Envision (PerkinElmer). The inhibitory activity of each compound was calculated as a relative activity value when luminescence level in wells without enzyme is considered as 100% inhibition.

The target of another test is T3, HDAC1 enzyme (Homo sapiens, UniProt Q13547).
T3 construct: transducing full length HDAC1 and HDAC6 genes into Sf-9 insect cells; GST; purchased SignalChem; host or cells: Sf-9 insect cells
The experiment in a line: HDAC1 enzyme inhibitory assay (HDAC-Glo I/II Assay kit). Conditions: wells without enzyme = 100% inhibition, read-out: HDAC1 inhibitory rate (%) (1 μM). The method, then: as §1, §2

T3 sequence (Q13547 whole entry): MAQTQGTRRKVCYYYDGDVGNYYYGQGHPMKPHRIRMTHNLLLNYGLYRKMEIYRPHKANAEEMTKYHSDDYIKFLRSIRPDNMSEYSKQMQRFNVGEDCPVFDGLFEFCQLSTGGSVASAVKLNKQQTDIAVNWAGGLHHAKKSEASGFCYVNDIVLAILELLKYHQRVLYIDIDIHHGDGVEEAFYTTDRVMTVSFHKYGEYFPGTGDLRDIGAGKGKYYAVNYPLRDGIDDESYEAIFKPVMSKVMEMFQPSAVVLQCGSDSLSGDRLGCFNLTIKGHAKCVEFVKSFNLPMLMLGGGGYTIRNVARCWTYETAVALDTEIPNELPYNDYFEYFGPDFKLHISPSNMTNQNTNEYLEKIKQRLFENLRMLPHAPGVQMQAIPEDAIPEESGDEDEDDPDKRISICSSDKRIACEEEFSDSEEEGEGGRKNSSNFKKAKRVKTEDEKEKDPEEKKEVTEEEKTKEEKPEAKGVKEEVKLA
T1 sequence (Q9UKV0 whole entry, species assumed): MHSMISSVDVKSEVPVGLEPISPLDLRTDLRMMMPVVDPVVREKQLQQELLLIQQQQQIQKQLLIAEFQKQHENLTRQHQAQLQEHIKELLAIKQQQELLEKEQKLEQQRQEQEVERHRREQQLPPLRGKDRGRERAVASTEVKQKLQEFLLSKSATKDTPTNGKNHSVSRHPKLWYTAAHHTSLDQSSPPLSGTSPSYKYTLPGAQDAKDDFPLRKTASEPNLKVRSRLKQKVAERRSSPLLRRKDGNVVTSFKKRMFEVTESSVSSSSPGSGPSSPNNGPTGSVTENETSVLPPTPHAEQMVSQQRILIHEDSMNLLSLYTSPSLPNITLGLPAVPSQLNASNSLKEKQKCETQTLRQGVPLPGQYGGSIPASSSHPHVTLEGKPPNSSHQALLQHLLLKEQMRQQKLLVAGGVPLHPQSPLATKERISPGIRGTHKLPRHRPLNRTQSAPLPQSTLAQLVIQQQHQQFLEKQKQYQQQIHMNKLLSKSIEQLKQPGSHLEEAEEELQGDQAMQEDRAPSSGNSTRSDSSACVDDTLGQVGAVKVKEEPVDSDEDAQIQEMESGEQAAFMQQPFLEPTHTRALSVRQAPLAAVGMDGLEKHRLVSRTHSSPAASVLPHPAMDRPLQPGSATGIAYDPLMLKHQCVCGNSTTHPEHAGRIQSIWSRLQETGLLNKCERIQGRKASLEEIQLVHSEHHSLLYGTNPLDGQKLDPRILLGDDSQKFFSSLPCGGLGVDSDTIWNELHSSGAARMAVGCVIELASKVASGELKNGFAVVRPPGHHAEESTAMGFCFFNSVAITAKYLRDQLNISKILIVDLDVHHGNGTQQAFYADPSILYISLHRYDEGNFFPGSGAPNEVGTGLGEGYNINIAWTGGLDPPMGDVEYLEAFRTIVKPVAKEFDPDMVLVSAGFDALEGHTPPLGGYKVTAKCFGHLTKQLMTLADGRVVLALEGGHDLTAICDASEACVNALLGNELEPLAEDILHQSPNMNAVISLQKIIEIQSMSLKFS

With `Cn1nccc1C(=O)NCC1COCCN1C(=O)Nc1ccc(-c2noc(C(F)(F)F)n2)cc1` (stereo not drawn) [Example 61, 3-((((1-methyl-1H-pyrazol-5-yl)carbonyl)amino)methyl)-N-(4-(5-(trifluoromethyl)-1,2,4-oxadiazol-3-yl)phenyl)morpholine-4-carboxamide], the inhibition at 1 µM is 98% at HDAC9 enzyme, 8% on HDAC6 enzyme and 62% at HDAC1 enzyme.
Regarding `O=C(NCC1CCCCN1C(=O)Nc1ccc(-c2noc(C(F)(F)F)n2)cc1)c1cccc(C(F)(F)F)c1` (stereo not drawn) [Example 17, 2-(((3-(trifluoromethyl)benzoyl)amino)methyl)-N-(4-(5-(trifluoromethyl)-1,2,4-oxadiazol-3-yl)phenyl)piperidine-1-carboxamide], the inhibition at 1 µM on HDAC9 enzyme turned out to be 80%; at HDAC6 enzyme, 1%; at HDAC1 enzyme it was 4%.
On the same counts, the results for `O=C(NCC1CCCCN1C(=O)Nc1ccc(-c2noc(C(F)(F)F)n2)cc1)c1ccccc1Cl` (stereo not drawn) [Example 7, 2-(((2-chlorobenzoyl)amino)methyl)-N-(4-(5-(trifluoromethyl)-1,2,4-oxadiazol-3-yl)phenyl)piperidine-1-carboxamide] are 52%, 3% and -3%.
For `COc1cccc(C(=O)NCC2CCCCN2C(=O)Nc2ccc(-c3noc(C(F)(F)F)n3)cc2)c1` (stereo not drawn) [Example 24, 2-(((3-methoxybenzoyl)amino)methyl)-N-(4-(5-(trifluoromethyl)-1,2,4-oxadiazol-3-yl)phenyl)piperidine-1-carboxamide], in that order: 88%, 3% and 24%.
On the same counts, the results for `Cc1ccccc1C(=O)NCC1CCCCN1C(=O)Nc1ccc(-c2noc(C(F)(F)F)n2)cc1` (stereo not drawn) [Example 10, 2-(((2-methylbenzoyl)amino)methyl)-N-(4-(5-(trifluoromethyl)-1,2,4-oxadiazol-3-yl)phenyl)piperidine-1-carboxamide] are 84%, 5% and 4%.
`CN1CCC(C(=O)NCC2CCCCN2C(=O)Nc2ccc(-c3noc(C(F)(F)F)n3)cc2)CC1` (stereo not drawn) [Example 52, 2-((((1-methylpiperidin-4-yl)carbonyl)amino)methyl)-N-(4-(5-(trifluoromethyl)-1,2,4-oxadiazol-3-yl)phenyl)piperidine-1-carboxamide]: the inhibition at 1 µM was determined as 80% at HDAC9 enzyme, 6% at HDAC6 enzyme and 27% on HDAC1 enzyme.
For `O=C(NCC1CCCCN1C(=O)Nc1ccc(-c2noc(C(F)(F)F)n2)cc1)c1ccc2nccn2c1` (stereo not drawn) [Example 45, N-((1-((4-(5-(trifluoromethyl)-1,2,4-oxadiazol-3-yl)phenyl)carbamoyl)piperidin-2-yl)methyl)imidazo[1,2-a]pyridine-6-carboxamide], the results for the inhibition at 1 µM at HDAC9 enzyme, on HDAC6 enzyme and on HDAC1 enzyme were 93%, 3% and 20%, respectively.
For `O=C(NCC1CCCCN1C(=O)Nc1ccc(-c2noc(C(F)(F)F)n2)cc1)c1ccncc1` (stereo not drawn) [Example 36, N-((1-((4-(5-(trifluoromethyl)-1,2,4-oxadiazol-3-yl)phenyl)carbamoyl)piperidin-2-yl)methyl)isonicotinamide], in that order: 97%, 5% and 63%.
On the same counts, the results for `O=C(Cc1cccs1)NCC1CCCCN1C(=O)Nc1ccc(-c2noc(C(F)(F)F)n2)cc1` (stereo not drawn) [Example 46, 2-(((2-thienylacetyl)amino)methyl)-N-(4-(5-(trifluoromethyl)-1,2,4-oxadiazol-3-yl)phenyl)piperidine-1-carboxamide] are 94%, 11% and 93%.
For `O=C(NCC1CCCCN1C(=O)Nc1ccc(-c2noc(C(F)(F)F)n2)cc1)c1ccccn1` (stereo not drawn) [Example 34, N-((1-((4-(5-(trifluoromethyl)-1,2,4-oxadiazol-3-yl)phenyl)carbamoyl)piperidin-2-yl)methyl)pyridine-2-carboxamide], in that order: 84%, 4% and 28%.
As to `N#Cc1ccccc1C(=O)NCC1CCCCN1C(=O)Nc1ccc(-c2noc(C(F)(F)F)n2)cc1` (stereo not drawn) [Example 19, 2-(((2-cyanobenzoyl)amino)methyl)-N-(4-(5-(trifluoromethyl)-1,2,4-oxadiazol-3-yl)phenyl)piperidine-1-carboxamide], the inhibition at 1 µM on HDAC9 enzyme was found to be 72%; on HDAC6 enzyme it was 2%; on HDAC1 enzyme, 15%.
Turning to `O=C(NCC1CCCCN1C(=O)Nc1ccc(-c2noc(C(F)(F)F)n2)cc1)c1ccccc1F` (stereo not drawn) [Example 4, 2-(((2-fluorobenzoyl)amino)methyl)-N-(4-(5-(trifluoromethyl)-1,2,4-oxadiazol-3-yl)phenyl)piperidine-1-carboxamide], the results for the inhibition at 1 µM at HDAC9 enzyme, on HDAC6 enzyme and on HDAC1 enzyme were 89%, 5% and 44%, respectively.
On to `O=C(NCC1CCCCN1C(=O)Nc1ccc(-c2noc(C(F)(F)F)n2)cc1)C1CCc2ccccc2O1` (stereo not drawn) [Example 43, 2-(((3,4-dihydro-2H-chromen-2-ylcarbonyl)amino)methyl)-N-(4-(5-(trifluoromethyl)-1,2,4-oxadiazol-3-yl)phenyl)piperidine-1-carboxamide], for which the inhibition at 1 µM turned out to be 74% on HDAC9 enzyme, 7% at HDAC6 enzyme and 57% on HDAC1 enzyme.
For `Cn1nccc1C(=O)NC[C@@H]1COCCN1C(=O)Nc1ccc(-c2noc(C(F)(F)F)n2)cc1` [Example 63, (3R)-3-((((1-methyl-1H-pyrazol-5-yl)carbonyl)amino)methyl)-N-(4-(5-(trifluoromethyl)-1,2,4-oxadiazol-3-yl)phenyl)morpholine-4-carboxamide], in that order: 99%, 11% and 70%.
